According to patent US7763638B2, “Substituted 1,2,3,4-tetrahydroisoquinoline derivatives” (Actelion Pharmaceuticals Ltd., priority 2004, dated 2010):

Experiments:
CYP3A4 = biological target: T1, CYP3A4 (Homo sapiens, UniProt P08684); assay: Inhibitory potency against CYPs in human liver microsomes; format: in vitro ADME; settings: human liver microsomes 0.25 mg/ml, midazolam (5 μM) 1'-hydroxylation, 5 min
T1 construct: performed using human liver microsomes (pool of 10 individuals); from tissue; host or cells: human liver microsomes, pool of 10 individuals
Description: Measurements of the Inhibitory Potency Against Different CYPs:
The CYP inhibition studies are performed using human liver microsomes (pool of 10 individuals), literature-established CYP isoform-selective substrates and quantification by either LC-MS/MS (for CYP3A4 and CYP2C9) or conventional HPLC with fluorimetric detection (for CYP2D6). The specific probes were midazolam 1′-hydroxylation for CYP3A4, dextromethorphan 3-hydroxylation for CYP2D6 and diclofenac 4′-hydroxylation for CYP2C9. […] Controls (sulfaphenazole for CYP2C9, fluoxetine for CYP2D6, and nicardipine for CYP3A4) were run in parallel in each plate.

male Wistar rats = assay: Spontaneous home cage activity and body temperature measured by radiotelemetry; format: in vivo, rat; settings: oral administration, home cage activity by telemetry
Excerpt: In Vivo Assay: Spontaneous Home Cage Activity and Body Temperature Measured by Radiotelemetry in Laboratory Rats:
The objective of the present test is to record the circadian behavioral activity of rats after oral administration of a compound according to general formula (I) of the invention.
Decreased home cage activity measured by telemetry in male Wistar rats was considered as an indication for sleep-inducing potential of a restricted number of highly optimized 1,2,3,4-tetrahydroisoquinoline derivatives.
Psychotropic drugs such as antidepressants, antipsychotics, sleep inducers or psychostimulants are well known to reduce or enhance home cage activity and body temperature following oral administration to laboratory animals. Thermoregulation is a complex process that contributes to homeostasis by coordinating metabolism, energy balance and behaviour. Body temperature changes with circadian behavioural activity and increases when locomotion increases. These two parameters were measured by telemetry in conscious freely moving Wistar rats. Anaesthetized animals were implanted, under aseptic conditions, with a body temperature/activity telemetric device into the peritoneal cavity. More than two weeks after the implantation of the telemetry system, data were collected at 5 minutes intervals during 96 hours. Hourly means were calculated for each rat. The first 48 h were used as an internal control trace and drug effects were compared to vehicle placebo. This method is validated pharmacologically by measuring amplitude and time course of both hypoactivity and hypothermia induced by GABA-A receptor modulators such as zolpidem.

T1 sequence (P08684 whole entry): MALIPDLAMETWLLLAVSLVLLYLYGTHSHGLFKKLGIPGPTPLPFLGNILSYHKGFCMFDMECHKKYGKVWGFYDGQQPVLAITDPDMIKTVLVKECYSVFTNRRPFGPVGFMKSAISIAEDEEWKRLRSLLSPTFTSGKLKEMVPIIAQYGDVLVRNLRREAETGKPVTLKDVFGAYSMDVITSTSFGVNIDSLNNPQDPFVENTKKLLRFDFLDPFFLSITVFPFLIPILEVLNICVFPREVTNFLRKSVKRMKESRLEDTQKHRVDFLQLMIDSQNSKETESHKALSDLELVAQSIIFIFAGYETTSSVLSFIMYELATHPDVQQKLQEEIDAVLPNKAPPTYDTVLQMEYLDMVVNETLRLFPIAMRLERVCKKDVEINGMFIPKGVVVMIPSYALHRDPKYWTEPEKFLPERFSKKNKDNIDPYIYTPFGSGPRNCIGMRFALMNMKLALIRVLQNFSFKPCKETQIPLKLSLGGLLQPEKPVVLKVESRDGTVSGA

CNC(=O)[C@@H](c1ccccc1)N1CCc2cc(OC)c(OC)cc2[C@@H]1CCc1ccc(C(F)(F)F)nc1 [Example 4, (2R)-2-{(1S)-6,7-dimethoxy-1-[2-(6-trifluoromethyl-pyridin-3-yl)-ethyl]-3,4-dihydro-1H-isoquinolin-2-yl}-N-methyl-2-phenyl-acetamide]
IC50 (CYP3A4): 50 µM
p.o activity (male Wistar rats): yes

CNC(=O)C(c1ccccc1)N1CCc2cc(OC)c(OC)cc2C1CCc1ccc(C(F)(F)F)nc1 (stereo not drawn) [Example 3, 2-{6,7-dimethoxy-1-[2-(6-trifluoromethyl-pyridin-3-yl)-ethyl]-3,4-dihydro-1H-isoquinolin-2-yl}-N-methyl-2-phenyl-acetamide]
IC50 (CYP3A4): 18 µM
p.o activity (male Wistar rats): yes

CNC(=O)[C@@H](c1ccccc1)N1CCc2cc(OC)c(OC)cc2[C@@H]1CCc1ccc(C(F)(F)F)cc1 [Example 2, (2R)-2-{(1S)-6,7-dimethoxy-1-[2-(4-trifluoromethyl-phenyl)-ethyl]-3,4-dihydro-1H-isoquinolin-2-yl}-N-methyl-2-phenyl-acetamide]
p.o activity (male Wistar rats): yes

CNC(=O)C(c1ccccc1)N1CCc2cc(OC)c(OC)cc2C1CCc1ccc(C(F)(F)F)cc1 (mixture of isomers) [Example 1, 2-{6,7-dimethoxy-1-[2-(4-trifluoromethyl-phenyl)-ethyl]-3,4-dihydro-1H-isoquinolin-2-yl}-N-methyl-2-phenyl-acetamide]
p.o activity (male Wistar rats): yes
